Reference: EP0821003B1, “PEPTIDES AND REMEDY FOR AUTOIMMUNE DISEASES COMPRISING THE SAME” (Aventis Pharma Ltd., priority 1995, dated 2003)
Non-standard residues stand in square brackets, D forms with d. Residues, ends and D or L forms follow the SMILES beside them. No end group written: not given here.

Experiments:
[1] = tested on: anti-KLH antibody production; experiment: Suppressive effect on anti-KLH antibody production in mice (ELISA of serum IgG); format: in vivo, Balb/c mice; conditions: for Anti-KLH IgG antibody titer (unit ± SD): Example 3, 100 µg subcutaneously day 5 and day 3 prior to KLH, blood day 21 after antigen; for Anti-KLH IgG antibody titer (unit ± SD) / Anti-KLH antibody titer (unit ± SD): 8 mice per group; for antibody production (anti-KLH) / Anti-KLH antibody titer (unit ± SD): Example 7; for Anti-KLH antibody titer (unit ± SD): in a similar manner to Example 3
Protocol: Day 5 and day 3 prior to the antigen administration, 100 µg of each Peptide (I) to (VI) of the present invention composed of 9 amino acid residues indicated by Sequence ID No. 1 in the Sequence Listing were dissolved in 200 µl of physiological saline. The resulting solution was subcutaneously administered to 9-week-old Balb/c mice. As a control, a non-administered group to which the same amount of physiological saline was administered was employed. In 200 µl of physiological saline, 25 µg of KLH were dissolved as an antigen and the resulting solution was subcutaneously administered. The blood was collected on day 21 after antigen administration and an antibody titer was measured by the method which is described below.
KLH was diluted to 10 µg/ml with a phosphate buffered physiological saline (PBS). Fifty µl portions of the resulting solution were poured into a 96-well microplate and the plate was allowed to stand at 4iC overnight. After the microplate was washed three times with 0.05% Tween-20-containing PBS (T-PBS), 200 µl portions of 0.5% casein tris-buffered physiological saline (casein TBS) were poured into wells, respectively. […] The microplate was washed three times with T-PBS and 50 µl portions of the mouse serum diluted to 1/200 with casein TBS were poured into the wells, followed by reaction for one hour (primary reaction).
The resulting microplate was washed three times with T-PBS, to which 50 µl portions of an anti-mouse IgG-peroxidase-labeled antibody (TAGO Co.) diluted to 1/4000 with casein TBS were poured. The reaction was effected at room temperature for one hour (secondary reaction). After the completion of the secondary reaction, the plate was washed three times again. Fifty µl portions of a substrate liquid/chromogen (chromogen substrate: Behringwerke AG) were poured into wells, respectively, followed by reaction at room temperature for 30 minutes. After the completion of the reaction, 0.5N diluted sulfuric acid was added to terminate the reaction and an absorbance at 450 nm was measured by a colorimeter ("BEP-II", product of Behringwerke AG/Germany) with the absorbance at 650 nm as a control.
In a similar manner to Example 3, suppressive effects of Peptides (I), (VII) to (XV) on anti-KLH antibody production in mice were studied.

[2] = tested on: anti-OVA antibody production; experiment: Suppressive effect on anti-OVA antibody production in mice (ELISA of serum IgG); format: in vivo, Balb/c mice; set-up: Anti OVA Ig-G antibody titer (unit): dose or concentration left out as unconfirmed; conditions: for Anti-OVA antibody titer: in a similar manner to Example 2
Protocol: Day 5 and day 3 prior to the antigen administration, Peptide (I) composed of 9 amino acid residues as indicated by Sequence ID No. 1 in the Sequence Listing of the present invention and a synthetic peptide 15 composed of 15 amino acid residues derived from clone 17.2 TcR, which peptide had been reported by Mohapatra et al. as described above, 100 g each, were dissolved in 200 of physiological saline and each solution thus obtained was subcutaneously administered to 9-week-old Balb/c mice. As a control, a non-administered group to which the same amount of physiological saline was administered was employed. In 200 I of physiological saline, 100 g of OVA (Sigma Chemical Co.) were dissolved, followed by subcutaneous administration. Blood was collected on day 21 after antigen administration and an antibody titer was measured by the method described below.
OVA was diluted to 10 µg/ml with phosphate buffered saline (PBS) and 50 I portions of the solution were poured in a 96-well microplate. The coating operation was conducted overnight at […]. The microplate was then washed three times with a 0.05% Tween-20-containing PBS (T-PBS). 200 portions of 0.5% casein-containing tris buffered physiological saline (casein TBS) were poured in each well and the microplate was allowed to stand at room temperature for one hour. The microplate was then washed three times with T-PBS. After the serum of the blood collected from the mice was diluted to 1/200 with 0.5% casein TBS, 50 I portions of the diluted serum were poured in each well and the plate was allowed to stand for one hour (primary reaction).
After the completion of the primary reaction, the microplate was washed three times with T-PBS. Fifty I portions of anti-mouse IgG-peroxidase-labeled antibody (TAGO Co.) diluted to 1/4000 with 0.5% casein TBS were poured in each well, followed by reaction at room temperature for one hour (secondary reaction). After the completion of the secondary reaction, the plate was washed three times again. Fifty I portions of a substrate liquid/chromogen (chromogen substrate: Behringwerke AG) were poured in each well, followed by reaction at room temperature for 30 minutes. After the completion of the reaction, 0.5N diluted sulfuric acid was added to terminate the reaction and an absorbance at 450 nm was measured by a colorimeter ("BEP-II", product of Behringwerke AG/Germany) with an absorbance at 650 nm as a control.
In a similar manner to Example 2, the suppressive effects of Peptides (I), (VII) to (XIV) on the anti-OVA antibody production in mice were measured.

[3] = tested on: EAE model mice; experiment: Onset suppressive effect on EAE model mice (clinical score); format: in vivo, SJL mouse; set-up: key to average score ± SD: EAE onset score per Pettinelli et al. 1982 criteria; conditions: for average score ± SD: score 0-6
Protocol: As an antigen, guinea pig spinal chord homogenate was employed. The guinea pig spinal chord homogenate was diluted with PBS to be 6.6 mg/ml, followed by the addition of the equivalent amount of Freund ? s complete adjuvant. The resulting mixture was formed into an emulsion by an ultrasonic sonicator. The resulting emulsion was administered to two areas under the lateral skin in a total amount of 300 µl. Day 5 and day 3 prior to antigen administration, and 5 days a week for 4 weeks after antigen administration, the solution of Peptide (I) dissolved in 100 µl physiological saline was subcutaneously administered to a 14-week old SJL mouse. Incidentally, in order to increase an onset ratio, […] of pertussis toxin (PTX) were intravenously administered as an enhancer on the day of antigen administration and two days after antigen administration. Observation of the onset was performed from day 14 to day 28 after primary antigen administration. The onset was scored based on the following standard criteria [Pettinelli, C. B., Fritz, D. E., and McFarlin, D. E. J. Immunl., 129, No. 3, 1024-1028 (1982)]. In Table 3, values of average score + standard deviation (SD) in each administration group on day 22, day 25 and day 28 after primary antigen administration are shown.

[4] = compared with Peptide (I) administered group
[5] = Example 8, compared with Peptide (I) administered group
[6] = Example 8, compared with the non-administered group and Peptide (I) administered group
[7] = compared with the non-administered group and Peptide (I) administered group

| Compound | Anti-KLH IgG antibody titer (unit ± SD) [1] [unit] | Anti-OVA antibody titer ([2]; Example 8, 8 mice per group) | antibody production (anti-KLH) [1, 4] | Anti-KLH antibody titer (unit ± SD) [1] [unit] | also measured |
| --- | --- | --- | --- | --- | --- |
| CC(C)C[C@@H](NC(=O)[C@@H](CCCCN)NC(=O)[C@@H](C)N)C(=O)N[C@@H](C(=O)N[C@H](Cc1ccccc1)C(=O)NCC(=O)N[C@H](CCCCN)C(=O)NCC(=O)N[C@@H](C(=O)O)[C@H](C)O)[C@H](C)O [Peptide (II)] (H-[dA][dK][dL][dT][dF]G[dK]G[dT]-OH) | 48.4 ± 13.1 |  |  |  |  |
| CC(=O)N[C@H](C)C(=O)N[C@H](CCCCN)C(=O)N[C@H](CC(C)C)C(=O)N[C@@H](C(=O)N[C@H](Cc1ccccc1)C(=O)NCC(=O)N[C@H](CCCCN)C(=O)NCC(=O)N[C@@H](C(=O)O)[C@H](C)O)[C@H](C)O [Peptide (V)] (Ac-[dA][dK][dL][dT][dF]G[dK]G[dT]-OH) | 37.7 ± 17.7 |  |  |  |  |
| CC(=O)N[C@H](C)C(=O)N[C@H](CCCCN)C(=O)N[C@H](CC(C)C)C(=O)N[C@@H](C(=O)N[C@H](Cc1ccccc1)C(=O)NCC(=O)N[C@H](CCCCN)C(=O)NCC(=O)N[C@@H](C(N)=O)[C@H](C)O)[C@H](C)O [Peptide (VI)] (Ac-[dA][dK][dL][dT][dF]G[dK]G[dT]-NH2) | 29.5 ± 19.5 |  |  |  |  |
| AALTFGKG [Peptide (VIII)] |  | 65.3 ± 34.7 | not suppressed | 44.9 ± 18.1 |  |
| AKATFGKG [Peptide (XIII)] |  | 193.5 ± 155.9 | not suppressed | 68.9 ± 25.1 | antibody production (anti-OVA) [2, 5]: not suppressed |
| AKLAFGKG [Peptide (IX)] |  | 10.4 ± 6.3 |  | 33.9 ± 13.7 | antibody production (anti-OVA) [2, 6]: significantly suppressed; antibody production (anti-KLH) [1, 7]: significantly suppressed |
| AKLTAGKG [Peptide (XIV)] |  | 90.9 ± 89.5 | not suppressed | 59.9 ± 32.8 | antibody production (anti-OVA) [2, 5]: not suppressed |
| AKLTFAKG [Peptide (X)] |  | 49.8 ± 28.4 |  | 26.5 ± 22.0 | antibody production (anti-KLH) [1, 7]: significantly suppressed |
| AKLTFGAG [Peptide (XI)] |  | 15.3 ± 14.3 |  | 19.9 ± 15.9 | antibody production (anti-OVA) [2, 6]: significantly suppressed; antibody production (anti-KLH) [1, 7]: significantly suppressed |
| AKLTFGKA [Peptide (XII)] |  | 50.9 ± 26.7 | not suppressed | 49.5 ± 40.1 |  |
| AKLTFGKG [Peptide (VII)] |  | 20.9 ± 21.4 |  | 25.9 ± 15.4 | antibody production (anti-OVA) [2, 6]: significantly suppressed; antibody production (anti-KLH) [1, 7]: significantly suppressed |
| AKLTFGKGT [Peptide (I)] | 78.7 ± 28.3 | 23.8 ± 12.4 |  | 39.5 ± 16.1 | antibody production (anti-OVA) ([2]; Example 2, compared with the non-administered group): significantly suppressed; Anti OVA Ig-G antibody titer (unit) ([2]; Example 2, subcutaneously day 5 and day 3 prior to OVA, blood day 21 after antigen, 8 mice per group, mean ± spread): 8.8 ± 10.8 unit; average score ± SD ([3]; 1 µg/body subcutaneously, Day 22 after primary antigen administration): 1.6 ± 1.8; average score ± SD ([3]; 1 µg/body subcutaneously, Day 25 after primary antigen administration): 0.9 ± 1.1; average score ± SD ([3]; 1 µg/body subcutaneously, Day 28 after primary antigen administration): 1.8 ± 1.9; onset of EAE ([3]; 5 µg/body group compared with the physiological saline group): suppressed on day 25 and day 28 with a significant difference of 5%; average score ± SD ([3]; 5 µg/body subcutaneously, Day 22 after primary antigen administration): 0.4 ± 0.7; average score ± SD ([3]; 5 µg/body subcutaneously, Day 25 after primary antigen administration): 1.0 ± 1.1; average score ± SD ([3]; 5 µg/body subcutaneously, Day 28 after primary antigen administration): 0.7 ± 0.8; onset of EAE ([3]; 25 µg/body group compared with the physiological saline group, from day 22): suppressed from day 22 with a significant difference of 5%; onset of EAE ([3]; 25 µg/body group compared with the physiological saline group, from day 25): suppressed with a significant difference of 1%; average score ± SD ([3]; 25 µg/body subcutaneously, Day 22 after primary antigen administration): 0.3 ± 0.4; average score ± SD ([3]; 25 µg/body subcutaneously, Day 25 after primary antigen administration): 0.1 ± 0.3; average score ± SD ([3]; 25 µg/body subcutaneously, Day 28 after primary antigen administration): 0.0 ± 0.0; onset of EAE ([3]; administration of Peptide (I), overall statement): suppressed |
| Ac-AKLTFGKGT [Peptide (III)] | 50.1 ± 25.8 |  |  |  |  |
| KLTFGKG [Peptide (XV)] |  |  | not suppressed | 86.4 ± 27.8 |  |
